“And” between values parts separate entries of the source, which are not always exact repeats. Equal entries are not always repeated.
Columns and labels:
[1] = 101 kPa, Liquid
[2] = mn = molality of the nth substance listed, in mol/kg; conditions: 101 kPa, Liquid; for speed of sound: Pulse-echo method

CC#N [acetonitrile]
[1]
Conditions	mass density
288.13 K	787.307 kg/m3 and 787.308 kg/m3 and 787.312 kg/m3
288.15 K	787.308 kg/m3
293.15 K	781.933 kg/m3 [middle of 4 runs]
298.15 K	776.532 kg/m3 [middle of 4 runs]
303.15 K	771.106 kg/m3 [middle of 4 runs]
308.15 K	765.645 kg/m3 and 765.664 kg/m3 and 765.649 kg/m3
313.15 K	760.158 kg/m3 [middle of 4 runs]
323.15 K	749.07 kg/m3 [middle of 4 runs]

CC#N [acetonitrile] + [Co+2].[O-][Cl+3]([O-])([O-])[O-].[O-][Cl+3]([O-])([O-])[O-]
[2], m2 = 0
Conditions	mass density [kg/m3]
288.13 K	787.307
293.15 K	781.933
298.15 K	776.535
303.15 K	771.114
308.15 K	765.664
313.15 K	760.181
323.15 K	749.107

CC#N [acetonitrile] + [Cu+2].[O-][Cl+3]([O-])([O-])[O-].[O-][Cl+3]([O-])([O-])[O-]
[2], m2 = 0
Conditions	mass density [kg/m3]
288.13 K	787.308
293.15 K	781.932
298.15 K	776.532
303.15 K	771.102
308.15 K	765.645
313.15 K	760.155
323.15 K	749.067

CC#N [acetonitrile] + [Mn+2].[O-][Cl+3]([O-])([O-])[O-].[O-][Cl+3]([O-])([O-])[O-]
[2], m2 = 0
Conditions	mass density [kg/m3]
288.15 K	787.308
293.15 K	781.932
298.15 K	776.531
303.15 K	771.102
308.15 K	765.645
313.15 K	760.156
323.15 K	749.07

CC#N [acetonitrile] + [Ni+2].[O-][Cl+3]([O-])([O-])[O-].[O-][Cl+3]([O-])([O-])[O-]
[2], m2 = 0
Conditions	mass density [kg/m3]
288.13 K	787.307
293.15 K	781.93
298.15 K	776.53
303.15 K	771.101
308.15 K	765.645
313.15 K	760.155
323.15 K	749.068

CC#N [acetonitrile] + [O-][Cl+3]([O-])([O-])[O-].[O-][Cl+3]([O-])([O-])[O-].[Zn+2]
[2], m2 = 0
Conditions	mass density [kg/m3]
288.13 K	787.312
293.15 K	781.934
298.15 K	776.535
303.15 K	771.106
308.15 K	765.649
313.15 K	760.158
323.15 K	749.07

[Co+2].[O-][Cl+3]([O-])([O-])[O-].[O-][Cl+3]([O-])([O-])[O-] [cobalt(II) perchlorate] + CC#N
[2]
Conditions	mass density, 288.13 K [kg/m3]	mass density, 293.15 K [kg/m3]	mass density, 298.15 K [kg/m3]	mass density, 303.15 K [kg/m3]	mass density, 308.15 K [kg/m3]	mass density, 313.15 K [kg/m3]	mass density, 323.15 K [kg/m3]	speed of sound, 298.15 K [m/s]
m1 = 0.0631	799.771	794.418	789.05	783.653	778.228	772.771	761.76	–
m1 = 0.06311	–	–	–	–	–	–	–	1282.4
m1 = 0.1115	809.436	804.1	798.743	793.363	787.958	782.523	771.558	1285.1
m1 = 0.1477	816.764	811.44	806.094	800.726	795.334	789.913	778.975	1287
m1 = 0.1815	823.65	818.333	812.996	807.639	802.256	796.848	785.942	1289
m1 = 0.2169	831.031	825.723	820.399	815.051	809.685	804.289	793.42	1290.7
m1 = 0.2496	837.824	832.525	827.21	821.873	816.516	811.134	800.293	1292.6
m1 = 0.2829	844.904	839.613	834.306	828.983	823.636	818.267	807.451	1294.5
m1 = 0.3172	852.306	847.023	841.727	836.41	831.074	825.719	814.932	1296.4
m1 = 0.3491	859.24	853.965	848.675	843.372	838.048	832.702	821.94	1298.2

[Cu+2].[O-][Cl+3]([O-])([O-])[O-].[O-][Cl+3]([O-])([O-])[O-] [copper perchlorate] + CC#N
[2]
Conditions	mass density, 288.13 K [kg/m3]	mass density, 293.15 K [kg/m3]	mass density, 298.15 K [kg/m3]	mass density, 303.15 K [kg/m3]	mass density, 308.15 K [kg/m3]	mass density, 313.15 K [kg/m3]	mass density, 323.15 K [kg/m3]	speed of sound, 298.15 K [m/s]
m1 = 0.0572	798.765	793.409	788.03	782.624	777.19	771.728	760.698	–
m1 = 0.05724	–	–	–	–	–	–	–	1281.6
m1 = 0.1013	807.682	802.334	796.961	791.568	786.147	780.696	769.697	1284.3
m1 = 0.1335	814.263	808.919	803.556	798.17	792.754	787.314	776.342	1286.2
m1 = 0.1645	820.66	815.323	809.967	804.588	799.184	793.753	782.802	1288.2
m1 = 0.1975	827.568	822.238	816.887	811.516	806.117	800.692	789.754	1290
m1 = 0.2264	833.698	828.373	823.028	817.66	812.272	806.857	795.939	1291.8
m1 = 0.258	840.493	835.168	829.828	824.467	819.083	813.673	802.774	1293.7
m1 = 0.285	846.334	841.014	835.678	830.323	824.946	819.544	808.66	1295.4
m1 = 0.3172	853.453	848.137	842.806	837.456	832.084	826.687	815.817	1297.3

[Mn+2].[O-][Cl+3]([O-])([O-])[O-].[O-][Cl+3]([O-])([O-])[O-] [manganese (II) perchlorate] + CC#N
[2]
Conditions	mass density, 288.15 K [kg/m3]	mass density, 293.15 K [kg/m3]	mass density, 298.15 K [kg/m3]	mass density, 303.15 K [kg/m3]	mass density, 308.15 K [kg/m3]	mass density, 313.15 K [kg/m3]	mass density, 323.15 K [kg/m3]	speed of sound, 298.15 K [m/s]
m1 = 0.07666	–	–	–	–	–	–	–	1282.8
m1 = 0.08738	–	–	–	–	–	–	–	1283.5
m1 = 0.1308	812.076	806.744	801.389	796.009	790.599	785.164	774.198	1286
m1 = 0.1732	820.267	814.947	809.604	804.238	798.846	793.424	782.485	1288.4
m1 = 0.216	828.628	823.32	817.989	812.633	807.252	801.843	790.933	1290.8
m1 = 0.257	836.778	831.471	826.148	820.803	815.431	810.032	799.145	1293
m1 = 0.298	845.062	839.769	834.455	829.123	823.764	818.379	807.522	1295.3
m1 = 0.3364	852.972	847.683	842.377	837.051	831.7	826.326	815.497	1297.9
m1 = 0.3745	860.854	855.574	850.277	844.96	839.624	834.26	823.454	1300.3
m1 = 0.4122	868.75	863.479	858.191	852.884	847.554	842.203	831.418	1302.7

[Ni+2].[O-][Cl+3]([O-])([O-])[O-].[O-][Cl+3]([O-])([O-])[O-] [nickel perchlorate] + CC#N
[2]
Conditions	mass density, 288.13 K [kg/m3]	mass density, 293.15 K [kg/m3]	mass density, 298.15 K [kg/m3]	mass density, 303.15 K [kg/m3]	mass density, 308.15 K [kg/m3]	mass density, 313.15 K [kg/m3]	mass density, 323.15 K [kg/m3]	speed of sound, 298.15 K [m/s]
m1 = 0.0492	797.088	791.73	786.35	780.945	775.512	770.049	759.023	–
m1 = 0.04923	–	–	–	–	–	–	–	1281.8
m1 = 0.08198	–	–	–	–	–	–	–	1284
m1 = 0.082	803.621	798.268	792.896	787.511	782.087	776.641	765.646	–
m1 = 0.1087	809.018	803.673	798.312	792.927	787.516	782.077	771.11	1285.8
m1 = 0.135	814.36	809.021	803.671	798.291	792.889	787.46	776.511	1287.5
m1 = 0.1611	819.735	814.406	809.058	803.686	798.299	792.88	781.957	1289.4
m1 = 0.1844	824.54	819.217	813.878	808.519	803.134	797.731	786.838	1290.9
m1 = 0.2114	830.147	824.83	819.495	814.141	808.766	803.366	792.486	1292.7
m1 = 0.2353	835.248	829.938	824.608	819.261	813.893	808.502	797.637	1294.1
m1 = 0.2607	840.618	835.309	829.987	824.647	819.287	813.905	803.067	1295.8

[O-][Cl+3]([O-])([O-])[O-].[O-][Cl+3]([O-])([O-])[O-].[Zn+2] [zinc perchlorate] + CC#N
[2]
Conditions	mass density, 288.13 K [kg/m3]	mass density, 293.15 K [kg/m3]	mass density, 298.15 K [kg/m3]	mass density, 303.15 K [kg/m3]	mass density, 308.15 K [kg/m3]	mass density, 313.15 K [kg/m3]	mass density, 323.15 K [kg/m3]	speed of sound, 298.15 K [m/s]
m1 = 0.05169	797.728	792.369	786.992	781.587	776.154	770.69	759.656	1280.2
m1 = 0.09336	806.167	800.821	795.456	790.063	784.645	779.192	768.19	1281.9
m1 = 0.1233	812.307	806.971	801.611	796.227	790.815	785.374	774.39	1283.1
m1 = 0.1524	818.329	812.997	807.644	802.268	796.864	791.433	780.466	1284.2
m1 = 0.1817	824.45	819.125	813.78	808.412	803.019	797.595	786.657	1285.4
m1 = 0.2106	830.536	825.218	819.877	814.514	809.128	803.712	792.788	1286.8
m1 = 0.2379	836.415	831.101	825.768	820.412	815.033	809.624	798.715	1287.9
m1 = 0.2668	842.682	837.373	832.046	826.696	821.325	815.925	805.037	1289
m1 = 0.2944	848.641	843.338	838.017	832.675	827.308	821.916	811.045	1290.3

From the NIST ThermoML archive (doi:10.1021/je0496950)
